# Source: the supplement of paper PMC6045584
# ± gives the standard deviation of the averaged measurements.
# Columns and labels:
# SORAFENIB = compound: CNC(=O)c1cc(Oc2ccc(NC(=O)Nc3ccc(Cl)c(C(F)(F)F)c3)cc2)ccn1 [SORAFENIB]; experiment: surviving fraction relative to DMSO-only wells; higher = less growth inhibition; settings: exposure time: 5 days
# How it was run: (§1)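 Surviving fraction was calculated by normalising CellTiter-Glo luminescence to the median of DMSO-only wells. Tumour cell lines in log phase were seeded in 384-well plates at 250–500 cells per well, and 24 hours later were exposed continuously for five days to inhibitors at 0.5, 1, 5, 10, 50, 100, 500 and 1000 nM.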
# [1] = compound: COc1cc2ncnc(Nc3ccc(F)c(Cl)c3)c2cc1NC(=O)/C=C/CN1CCCCC1; experiment: as above; settings: exposure time: 5 days
# How it was run: as §1
Test System,surviving fraction (SORAFENIB; 0.5 nM),surviving fraction (SORAFENIB; 1 nM),surviving fraction (SORAFENIB; 5 nM),surviving fraction (SORAFENIB; 10 nM),surviving fraction (SORAFENIB; 50 nM),surviving fraction (SORAFENIB; 100 nM),surviving fraction (SORAFENIB; 500 nM),surviving fraction (SORAFENIB; 1000 nM),surviving fraction ([1]; 0.5 nM),surviving fraction ([1]; 1 nM),surviving fraction ([1]; 5 nM),surviving fraction ([1]; 10 nM),surviving fraction ([1]; 50 nM),surviving fraction ([1]; 100 nM),surviving fraction ([1]; 500 nM),surviving fraction ([1]; 1000 nM)
SAOS2 BONE,0.935 ± 0.028,1.019 ± 0.0098,1.072 ± 0.0081,1.04 ± 0.064,1.17 ± 0.017,1.237 ± 0.0023,1.196 ± 0.01,1.07 ± 0.079,1.17 ± 0.02,1.14 ± 0.017,1.14 ± 0.038,1.13 ± 0.07,1.1 ± 0.062,1.13 ± 0.064,0.762 ± 0.044,0.513 ± 0.028
H23 LUNG,1.01 ± 0.03,–,1.06 ± 0.061,1.06 ± 0.033,1.32 ± 0.095,1.33 ± 0.031,1.38 ± 0.11,1.27 ± 0.073,0.91 ± 0.056,0.744 ± 0.035,0.468 ± 0.015,0.414 ± 0.026,0.381 ± 0.013,0.38 ± 0.018,0.332 ± 0.023,0.292 ± 0.023
SUM149 BREAST,1.18 ± 0.028,1.09 ± 0.048,–,–,–,1.17 ± 0.051,–,1.278 ± 0.0084,1.03 ± 0.095,1.03 ± 0.061,0.851 ± 0.04,0.747 ± 0.044,0.515 ± 0.056,0.395 ± 0.091,0.362 ± 0.013,0.341 ± 0.071
SUM44 BREAST,1.03 ± 0.035,0.99 ± 0.041,1.03 ± 0.051,1.04 ± 0.053,1.12 ± 0.035,1.11 ± 0.044,–,0.974 ± 0.026,1.01 ± 0.028,1.03 ± 0.031,1.01 ± 0.05,1.01 ± 0.053,1.03 ± 0.06,1.07 ± 0.018,0.916 ± 0.044,0.727 ± 0.0096
CAL72 BONE,1.06 ± 0.031,–,1.09 ± 0.026,1.05 ± 0.048,1.13 ± 0.039,1.121 ± 0.0063,1.09 ± 0.041,1.08 ± 0.042,1.08 ± 0.014,1.06 ± 0.042,1.08 ± 0.062,1.03 ± 0.024,1.06 ± 0.055,1.07 ± 0.034,0.943 ± 0.019,0.818 ± 0.017
YAMATO SYNOVIAL,1.26 ± 0.054,1.24 ± 0.066,1.37 ± 0.096,1.26 ± 0.078,1.44 ± 0.096,1.35 ± 0.05,1.18 ± 0.088,1.04 ± 0.056,1.23 ± 0.053,1.29 ± 0.18,1.3 ± 0.02,1.45 ± 0.17,1.31 ± 0.095,1.39 ± 0.068,1.31 ± 0.16,1.27 ± 0.077
COLO320DM LARGE INTESTINE,1.13 ± 0.042,1.06 ± 0.04,1.15 ± 0.029,1.07 ± 0.075,1.21 ± 0.14,1.11 ± 0.013,1.18 ± 0.2,0.968 ± 0.074,1.04 ± 0.011,1.15 ± 0.067,1.07 ± 0.015,1.07 ± 0.068,1.12 ± 0.076,1.07 ± 0.055,0.685 ± 0.03,0.377 ± 0.025
VP229 BREAST,0.934 ± 0.11,0.939 ± 0.05,1.06 ± 0.11,1 ± 0.11,1.21 ± 0.088,1.12 ± 0.17,1.31 ± 0.13,1.3 ± 0.028,1.02 ± 0.1,1.18 ± 0.056,0.663 ± 0.12,0.638 ± 0.086,0.306 ± 0.011,0.287 ± 0.026,0.2307 ± 0.00058,0.191 ± 0.029
U2OS BONE,1.01 ± 0.019,1.03 ± 0.027,1.06 ± 0.05,1.05 ± 0.029,1.08 ± 0.035,–,1.08 ± 0.016,1 ± 0.067,1.03 ± 0.023,1.03 ± 0.025,1.02 ± 0.025,1.01 ± 0.038,1.04 ± 0.015,1.06 ± 0.027,0.906 ± 0.033,0.798 ± 0.034
SCC90 HEADNECK,1.16 ± 0.083,1.23 ± 0.13,1.37 ± 0.12,1.3 ± 0.097,–,0.797 ± 0.076,1.01 ± 0.083,1.12 ± 0.069,0.948 ± 0.041,0.938 ± 0.039,0.647 ± 0.1,0.608 ± 0.018,0.388 ± 0.017,0.4 ± 0.024,0.377 ± 0.066,0.294 ± 0.023
VCAP PROSTATE,1.13 ± 0.17,1.17 ± 0.11,1.19 ± 0.12,1.08 ± 0.053,1.12 ± 0.21,–,1.13 ± 0.16,1.02 ± 0.062,0.95 ± 0.04,0.769 ± 0.036,0.967 ± 0.08,1.04 ± 0.12,1.04 ± 0.048,0.996 ± 0.14,0.725 ± 0.078,0.406 ± 0.025
SG32 HEADNECK,1.2 ± 0.15,1.47 ± 0.68,1.33 ± 0.044,1.42 ± 0.35,1.76 ± 0.68,1.62 ± 0.26,1.53 ± 0.35,1.56 ± 0.36,1.24 ± 0.15,0.962 ± 0.098,0.846 ± 0.018,0.958 ± 0.046,0.819 ± 0.071,0.865 ± 0.029,0.695 ± 0.061,0.301 ± 0.034
MDAMB157 BREAST,0.962 ± 0.016,0.909 ± 0.064,0.984 ± 0.03,0.923 ± 0.046,–,1.01 ± 0.059,0.963 ± 0.036,–,0.951 ± 0.025,0.894 ± 0.018,1 ± 0.046,0.964 ± 0.056,0.95 ± 0.094,0.864 ± 0.051,0.887 ± 0.1,0.63 ± 0.095
HCC1806 BREAST,0.985 ± 0.032,0.78 ± 0.45,1.03 ± 0.059,0.771 ± 0.66,1.14 ± 0.099,1.05 ± 0.14,1 ± 0.11,0.888 ± 0.081,1.11 ± 0.16,1.05 ± 0.11,1 ± 0.083,0.79 ± 0.046,0.663 ± 0.087,0.573 ± 0.014,0.458 ± 0.052,0.322 ± 0.022
SIHA CERVIX,1.04 ± 0.085,1.16 ± 0.11,1.089 ± 0.01,1.13 ± 0.077,–,1.15 ± 0.043,1.17 ± 0.16,1.17 ± 0.15,1.05 ± 0.12,0.994 ± 0.043,1.02 ± 0.082,1.1 ± 0.074,1.04 ± 0.11,1.06 ± 0.11,0.862 ± 0.055,0.672 ± 0.067
MHM BONE,0.977 ± 0.025,1.01 ± 0.024,–,1.06 ± 0.051,1.071 ± 0.0061,1.08 ± 0.024,1.1 ± 0.034,–,1.01 ± 0.044,0.998 ± 0.021,1.02 ± 0.025,0.998 ± 0.032,1.01 ± 0.011,1.03 ± 0.024,0.974 ± 0.011,0.926 ± 0.016
HOSMNG BONE,0.994 ± 0.086,0.975 ± 0.14,0.943 ± 0.092,1 ± 0.14,1.06 ± 0.11,1.05 ± 0.16,1.1 ± 0.049,1.06 ± 0.15,0.909 ± 0.07,0.924 ± 0.11,0.958 ± 0.063,0.917 ± 0.086,1.033 ± 0.0083,1.02 ± 0.046,0.97 ± 0.1,0.953 ± 0.017
C33A CERVIX,–,1.1 ± 0.17,1.08 ± 0.084,1.07 ± 0.075,1.18 ± 0.17,1.23 ± 0.17,1.21 ± 0.069,1.19 ± 0.13,0.793 ± 0.044,0.93 ± 0.15,0.899 ± 0.017,0.802 ± 0.085,0.517 ± 0.051,0.428 ± 0.022,0.358 ± 0.019,0.296 ± 0.02
